According to patent publication US6911455B2, “Methods for preparing pharmaceutical formulations” (SmithKline Beecham Corporation, priority 1999, dated 2005):
“And” between values parts separate entries of the source, which are not always exact repeats. Equal values may be shown once.

Columns and labels:
[1] = Surface tension analysis (DuNouy ring method); format: physicochemical
Source text: Aggregation of the histamine releaser in the reference solution and the comparative solution(s) can be measured by measuring the surface tension of each of the reference solution and the comparative solution(s) using the DuNouy ring method, as described in PHYSICAL PHARMACY: PHYSICAL CHEMICAL PRINCIPLES IN THE PHARMACEUTICAL SCIENCES, Editors: Alfred Martin, James Swarbrick, Arthur Cammarata, Third Edition, Lea Et Febiger, Philadelphia, 1983. Surface tension may provide a measure of the critical micelle concentration of the histamine releaser in solution and for this reason is an indicator of aggregation of the histamine releaser in the solution. […]
The surface tension properties of the histamine liberating agent can be evaluated using the DuNouy ring method. […]
The force required to detach the ring in this manner is provided by a torsion wire and is recorded in dynes on a calibrated dial. […]
The tensiometer is calibrated with filtered water and the surface tension of a 50 mg/mL solution of Compound 1 in water is evaluated at room temperature.
The surface tension of each solution is evaluated at room temperature and the results are recorded in a curve of surface tension (y-axis) versus concentration of drug (x-axis).

[2] = Proton NMR relaxation rates (T1, T2) as measure of aggregation; format: physicochemical; conditions: for T1 / T2: D2O saline (150 mM NaCl)
Source text: There are two types of NMR relaxation, spin-lattice and spin-spin relaxation, referred to as T1 and T2 values, respectively. T1 and T2 are rate constants which measure the relaxation of NMR magnetization back to equilibrium (hereinafter collectively referred to as “NMR relaxation rates”). For small molecules in what is called the extreme narrowing limit, both T1 and T2 increase in inverse proportion to the rotational tumbling rate tc, which, in turn, is directly proportional to the average size of the aggregate. Thus, for small molecules, increases in T1 and/or T2 rates with the addition of excipient to the solution containing the histamine releaser, in the absence of significant changes in the viscosity of the solution, indicates a decrease in aggregation.
Compound 1 and excipient (in the various amounts noted below) are dissolved in 200 μL of D2O with 0.15 M NaCl adjusted to pD 3.0 with NaOD and/or DCl for compound stability reasons. Deuterated saline solution is used in the reference solution because critical compound peaks (or signals) overlap when deuterated water is employed. Samples in a titration series are prepared by serial dilutions. All NMR spectra are recorded at 30° C. on a Varian Unity Plus 500 MHz spectrometer. Spectra are referenced to D2O at 4.65 ppm. All spectra are processed using Varian VNMR® software v6.1a. T1 and T2 relaxation rates are measured using the standard inversion-recovery and Carr-Purcell-Meiboom-Gill (CPMG) experiments respectively, both of which are provided with the Varian software. CPMG experiments are described in M. Bulsing, et al., J. Chem. Soc. Chem. Commun. 1201-3 (1981); R. Freeman et al., IN DYNAMIC NMR SPECTROSCOPY, eds. L. Jackman and F. Cotton (1975) pp. 131-162, Academic Press, London and New York; and D. Rabenstein, et al., J. Magn. Reson. 64:541-546 (1985).
A series of solutions with increasing concentrations of Compound 1 in D2O saline, pD 3.0 are prepared and the NMR relaxation rate constants measured. Both T1S and T2S are measured because the drug, with a molecular weight of 1064.51, could lie outside the extreme motional narrowing limit for NMR, in which case, T1S would be expected to decrease and T2S would be expected to increase with a decrease in aggregation. See, K. Wüthrich, NMR OF PROTEINS AND NUCLEIC ACIDS, (1986) John Wiley Sons, New York.
A series of solutions containing 80 mM Compound 1 with increasing concentrations of d4-citrate in D2O saline, pD 3.0, are prepared, and the NMR relaxation rates are measured. The data obtained is summarized in Table 2 and reported graphically in FIG. 2.
A series of solutions containing 80 mM Compound 1 and varying concentrations of CaCl2 and d4-citrate in D2O saline, pD 3.0, are prepared, and the NMR relaxation rates are measured.

[3] = 80 mM Compound 1, d4-citrate 0.78 mM, pD 3
[4] = 80 mM Compound 1, d4-citrate 1.56 mM, pD 3
[5] = 80 mM Compound 1, d4-citrate 3.13 mM, pD 3
[6] = 80 mM Compound 1, d4-citrate 6.25 mM, pD 3
[7] = 80 mM Compound 1, d4-citrate 12.5 mM, pD 3
[8] = 80 mM Compound 1, d4-citrate 25 mM, pD 3
[9] = 80 mM Compound 1, d4-citrate 50 mM, pD 3
[10] = 80 mM Compound 1, d4-citrate 100 mM, pD 3
[11] = vinyl proton, 20 mM Compound 1, pD 3, 30° C.
[12] = vinyl proton, 40 mM Compound 1, pD 3, 30° C.
[13] = vinyl proton, 80 mM Compound 1, no excipient (reference solution), pD 3, 30° C.
[14] = vinyl proton, 160 mM Compound 1, pD 3, 30° C.

critical micelle concentration ([1]; in water): about 14 mM
slowing of relaxation rates compared to the reference solution ([2]; 80 mM Compound 1, 50 mM d4-citrate, D2O saline, pD 3): at least 25%
change in the T1 value (slowing of the relaxation rate) compared to the reference solution ([2]; 80 mM Compound 1, CaCl2 + d4-citrate, all but the two lowest concentrations of CaCl2 of Table 3): greater than 25%
d4-citrate concentration giving maximal effect on decreasing aggregation ([2]; 80 mM Compound 1, D2O saline, pD 3): 50 mM
T1 ([2]; 80 mM Compound 1, d4-citrate 0.78 mM + CaCl2 100 mM, pD 3): 2.78 s
T1 [2, 3]: 1.53 s
T2 [2, 3]: 0.57 s
T1 [2, 4]: 1.65 s
T2 [2, 4]: 0.59 s
T1 [2, 5]: 1.69 s
T2 [2, 5]: 0.67 s
T1 ([2]; 80 mM Compound 1, d4-citrate 5 mM + CaCl2 3.13 mM, pD 3): 1.45 s
T1 ([2]; 80 mM Compound 1, d4-citrate 5 mM + CaCl2 6.25 mM, pD 3): 1.47 s
T1 ([2]; 80 mM Compound 1, d4-citrate 5 mM + CaCl2 12.5 mM, pD 3): 1.51 s
T1 ([2]; 80 mM Compound 1, d4-citrate 5 mM + CaCl2 25 mM, pD 3): 1.89 s
T1 ([2]; 80 mM Compound 1, d4-citrate 5 mM + CaCl2 50 mM, pD 3): 1.94 s
T1 ([2]; 80 mM Compound 1, d4-citrate 5 mM + CaCl2 100 mM, pD 3): 2.14 s
T1 [2, 6]: 1.24 s
T2 [2, 6]: 0.69 s
T1 [2, 7]: 2.09 s
T2 [2, 7]: 1.01 s
T1 [2, 8]: 2.03 s
T2 [2, 8]: 0.87 s
T1 ([2]; 80 mM Compound 1, d4-citrate 50 mM + CaCl2 100 mM, pD 3): 2.26 s
T1 [2, 9]: 2.13 s
T2 [2, 9]: 1.31 s
T1 [2, 10]: 1.96 s
T2 [2, 10]: 0.85 s
critical micelle concentration ([2]; in saline (D2O saline, pD 3)): 40 to 80 mM
T1 ([2]; vinyl proton, 10 mM Compound 1, pD 3, 30° C.): 2.05 s
T1 [2, 11]: 2.30 s
T2 [2, 11]: 2.04 s
T1 [2, 12]: 2.49 s
T2 [2, 12]: 1.96 s
T1 [2, 13]: 1.20 s and 1.2 s
T2 [2, 13]: 0.38 s
T1 [2, 14]: 0.83 s
T2 [2, 14]: 0.13 s
SMILES: COc1cc2c(cc1OC)[C@H](c1cc(OC)c(OC)c(OC)c1)[N@@+](C)(CCCOC(=O)/C=C(\Cl)C(=O)OCCC[N@+]1(C)CCc3cc(OC)c(OC)cc3[C@H]1Cc1cc(OC)c(OC)c(OC)c1)CC2.[Cl-].[Cl-] [Compound 1, (Z)-2-chloro-1-{3-{(1R,2S)-6,7-dimethoxy-2-methyl-1-[(3,4,5-trimethoxyphenyl)methyl]-1,2,3,4-tetrahydro-2-isoquinolinio}propyl}-4-{3-[(1S,2R)-6,7-dimethoxy-2-methyl-1-(3,4,5-trimethoxyphenyl)-1,2,3,4-tetrahydro-2-isoquinolinio]propyl}-2-butenedioate dichloride]
surface tension versus concentration ([1]; 1-50 mg/mL in water, room temperature, FIG. 1): concentration dependent surface tension lowering
